Here are results for five compounds from patent publication US12247063B2, “Cell surface modification by coating with peptide amphiphiles (PAs)” (Northwestern University, priority 2020, dated 2025).

Peptide text beside a SMILES is read from it.

One data set deals with ICAM surface (Homo sapiens, UniProt P05362). The data set is described as follows: Microfluidic flow retention of coated lymphocytes on protein surface. The data set is classed as cell-based. An excerpt: (§1) To further investigate the coating efficiency of the targeting PAs, murine primary splenocytes were isolated, coated with TAMRA-labeled ICAM-1 targeting PA, and visualized using confocal microscopy. […] Flow cytometry was subsequently performed to compare coating efficiency of ICAM-1 and VCAM-1 targeting PAs. […] This can be visualized through both light microscopy (top) and processed images highlighting bound cell edges (bottom).
Sequence of ICAM surface (P05362 28-532): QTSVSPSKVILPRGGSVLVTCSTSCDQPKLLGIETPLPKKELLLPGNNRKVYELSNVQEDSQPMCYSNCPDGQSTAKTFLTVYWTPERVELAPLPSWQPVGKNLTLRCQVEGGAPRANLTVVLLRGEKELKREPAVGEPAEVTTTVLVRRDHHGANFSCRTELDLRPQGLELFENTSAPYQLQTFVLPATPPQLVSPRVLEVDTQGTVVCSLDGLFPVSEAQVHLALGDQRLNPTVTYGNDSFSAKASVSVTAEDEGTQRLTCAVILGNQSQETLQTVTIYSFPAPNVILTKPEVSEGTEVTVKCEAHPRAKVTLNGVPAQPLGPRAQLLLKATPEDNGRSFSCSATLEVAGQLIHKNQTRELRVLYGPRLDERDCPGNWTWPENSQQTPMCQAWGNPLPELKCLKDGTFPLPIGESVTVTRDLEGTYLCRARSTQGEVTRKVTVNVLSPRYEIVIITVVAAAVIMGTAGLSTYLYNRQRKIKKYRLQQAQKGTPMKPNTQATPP

Data set [1] has as its system primary murine splenocytes. The experiment in a line: Coating of murine primary splenocytes (confocal, flow cytometry). The data set is classed as cell-based.
From the text: as §1
In general terms: In flow cytometry, cells or beads pass a laser one at a time.

A short description of data set [2]: Viability of PA-coated hTreg cells (Calcein AM, flow cytometry). Particulars: human, human regulatory T (hTreg) cells. The class given is cell-based, human. As to the method:
(§2) The 15 μL of concentrated cell dispersion in DPBS was mixed with 10 μL of PA solution in 500 μL-tube at RT. Unless otherwise noted, the incubation time for backbone PAs and VCAMb PA is 5 minutes and 1 minute, respectively. After incubation the cell and PA mixture was transferred to a 15 mL-conical tube with 2 mL of DPBS and centrifuged down by 1,000 g for 10 minutes. The supernatant was aspirated leaving 300 μL of buffers with the cell pellet. For backbone PA, the washing step was repeated for 3 times. For further characterizations, the pellets were dissociated in 100 μL DPBS.
(§3) All cells were stained by Calcein AM (Life Technologies) and Hoechst 33342 (Life Technologies) according to manufacturer's instructions for imaging and the flow cytometry analysis. For confocal fluorescence imaging and imaging with z-stacks, Nikon X1 Spinning Disk Confocal microscope in Center for Advanced Microscopy/Nikon Imaging Center (CAM), Northwestern University was utilized. For 3D reconstruction of z-stacks of confocal images, IMARIS software (Oxford Instruments) in the same center was utilized.
(§4) In order to quantify the coating efficiency, mean fluorescence intensity (MFI) and the viability of the cells, LSR Fortessa and Diva software (BD Biosciences) was utilized. The coating efficiency was obtained from calculating the number of TAMRA+ cells divided by the total number of cells (Hoechst+ cells). The MFI value was obtained from living cells. The viability was calculated by dividing the number of Calcein-AM+ (living cells) by the total number of cells.

A short description of data set [3]: Zeta potential measurement of PA nanofibers. The class given is physicochemical. The note with it: 0.1 mM PA in DPBS. As to the method:
The PA solutions were prepared with the final concentration of 0.1 mM in DPBS. Each solution was transferred to folded capillary zeta cells (Malvern). The zeta potential was measured using zetasizer Nano ZSP (Malvern).

Data set [4] addresses T1, Recombinant Human VCAM-1/CD106 Fc chimera protein (Homo sapiens, UniProt P19320).
T1 construct: Fc (immunoglobulin Fc fusion partner); His tag (inferred from capture on anti-penta-His sensor); purchased R&D Systems
The experiment in a line: Biolayer interferometry (BLI) binding to VCAM-1 protein. The note with it: all concentrations of PA investigated (0.1 mM-100 nM). How it is done:
The PA solution of each PA were prepared with the concentration 1 mM after annealing and serial dilutions were made for 100, 10, 1 μM, 100, 10, 1 nM solutions using DPBS. Recombinant Human VCAM-1/CD106 Fc chimera protein (R&D Systems) was purchased and the stock solution of 100 μg/mL was prepared according to the manufacturer's instructions and stored in −80° C. until use. For measurement, the protein solution was diluted to […]. The binding responses were measured and recorded by BLItz Bio-Layer Interferometer in Keck Biophysics Facility, Chicago campus, Northwestern University. The biosensor utilized for this study was Anti-Penta-HIS Biosensors (ForteBio). The measuring protocol is as follows: 30 seconds of initial baseline measurement, 600 seconds of protein (VCAM-1) immobilization, 30 seconds of base line measurement, 300 seconds of association measurement, 300 seconds of dissociation measurement. The dissociation constant was calculated by BLItz Pro Software.

Data set [5] relates to human regulatory T (hTreg) cells. The experiment in a line: PA nanofiber coating of human regulatory T cells (flow cytometry, confocal). The class given is cell-based. As to the method:
To isolate the Treg cells, the apheresis product collected from peripheral blood was suspended in a de-clumping buffer (Miltenyi PBS/EDTA Buffer, 25% Human Serum Albumin (HSA), MgCl2, and Pulmozyme). Using CliniMACS Plus and GMP grade reagents, the CD8 and CD19 depletion and CD25+ enrichment was carried out (Miltenyi). The isolated Tregs were stimulated/expanded with Exp-Act® beads at a 4:1 (bead:cell) ratio in a TexMACS medium supplemented with 5% heat-inactivated AB serum, 1,000 IU/ml IL-2, 100 ng/ml Sirolimus (SRL: Rapamycin; Sigma Aldrich) and 1 μg/ml TGF-β (Miltenyi Biotec). The cells were then restimulated with Exp-Act® beads, at a ratio of 1:1 beads on Day 7 and 14. Further, the expanded Tregs were harvested on Day 21 and Exp-Act beads were removed on the CliniMACS Plus instrument for the nanofiber coating experiment and evaluation. Peripheral blood samples were obtained under a protocol following written informed consent approved and supervised by a Northwestern University Institutional Review Board.
(§5) The cells for PA nanofiber coating should be prepared as a dispersion in buffer (DPBS; Invitrogen). The adherent cells such as 3T3 and C2C12 cells were dissociated using Trypsin (0.25%, Invitrogen). The cells were centrifuged down and washed using buffers to be prepared in DPBS (5×10^5 cells/15 μL/tube). Non-adherent cells such as CCRF-CEM cells or human regulatory T cells were simply washed by buffers to remove serum or other proteins which potentially interact with the PA molecules to get concentrated cell dispersion.
as §2
(§6) All cells were stained by Calcein AM (Life Technologies) and Hoechst 33342 (Life Technologies) according to manufacturer's instructions for imaging and the flow cytometry analysis. For confocal fluorescence imaging and imaging with z-stacks, Nikon X1 Spinning Disk Confocal microscope in Center for Advanced Microscopy/Nikon Imaging Center (CAM), Northwestern University was utilized. […]
(§7) In order to quantify the coating efficiency, mean fluorescence intensity (MFI) and the viability of the cells, LSR Fortessa and Diva software (BD Biosciences) was utilized. […] The viability was calculated by dividing the number of Calcein-AM+ (living cells) by the total number of cells.

The test system is the same in data set [6]. The experiment in a line: Viability of PA-coated hTreg cells (Calcein AM, flow cytometry). The data set is classed as cell-based. Particulars: 500 μM coating solution. How it is done:
as §2, §3, §4

Another data set deals with CCRF-CEM cells. The data set is described as follows: PA nanofiber coating of CCRF-CEM model cells (confocal microscopy, flow cytometry). The data set is classed as cell-based. Particulars: annealed nanofibers with 1 mol % TAMRA-PA. How it is done:
as §5
The 15 μL of concentrated cell dispersion in DPBS was mixed with 10 μL of PA solution in 500 μL-tube at RT. […]
as §6, §7

For the next data set, the target named is T2, VCAM-1 (Homo sapiens, UniProt P19320).
T2 sequence (P19320 25-739): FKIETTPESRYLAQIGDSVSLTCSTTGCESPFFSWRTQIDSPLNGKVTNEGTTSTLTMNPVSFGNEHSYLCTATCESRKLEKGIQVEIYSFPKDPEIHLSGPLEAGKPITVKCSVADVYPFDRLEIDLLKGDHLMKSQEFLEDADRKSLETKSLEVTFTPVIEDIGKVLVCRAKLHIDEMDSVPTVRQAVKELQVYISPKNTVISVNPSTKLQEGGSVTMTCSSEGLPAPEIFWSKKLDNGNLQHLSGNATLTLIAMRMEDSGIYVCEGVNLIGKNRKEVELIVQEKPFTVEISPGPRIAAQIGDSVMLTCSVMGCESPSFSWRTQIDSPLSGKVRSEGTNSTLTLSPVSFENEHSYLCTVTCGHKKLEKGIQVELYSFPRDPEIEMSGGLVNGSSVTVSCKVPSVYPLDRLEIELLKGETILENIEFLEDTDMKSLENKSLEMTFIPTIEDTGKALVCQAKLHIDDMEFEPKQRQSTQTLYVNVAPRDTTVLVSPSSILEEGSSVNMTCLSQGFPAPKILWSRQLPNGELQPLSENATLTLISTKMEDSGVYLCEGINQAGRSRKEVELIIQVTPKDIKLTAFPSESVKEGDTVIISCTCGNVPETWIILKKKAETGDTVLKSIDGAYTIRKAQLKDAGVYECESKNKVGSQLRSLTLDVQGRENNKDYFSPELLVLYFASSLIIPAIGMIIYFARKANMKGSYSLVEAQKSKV
Particulars: free peptide, SPR, measured from another group; cited from earlier work.

T1 sequence (P19320 with tags, fused parts or gaps limits assumed): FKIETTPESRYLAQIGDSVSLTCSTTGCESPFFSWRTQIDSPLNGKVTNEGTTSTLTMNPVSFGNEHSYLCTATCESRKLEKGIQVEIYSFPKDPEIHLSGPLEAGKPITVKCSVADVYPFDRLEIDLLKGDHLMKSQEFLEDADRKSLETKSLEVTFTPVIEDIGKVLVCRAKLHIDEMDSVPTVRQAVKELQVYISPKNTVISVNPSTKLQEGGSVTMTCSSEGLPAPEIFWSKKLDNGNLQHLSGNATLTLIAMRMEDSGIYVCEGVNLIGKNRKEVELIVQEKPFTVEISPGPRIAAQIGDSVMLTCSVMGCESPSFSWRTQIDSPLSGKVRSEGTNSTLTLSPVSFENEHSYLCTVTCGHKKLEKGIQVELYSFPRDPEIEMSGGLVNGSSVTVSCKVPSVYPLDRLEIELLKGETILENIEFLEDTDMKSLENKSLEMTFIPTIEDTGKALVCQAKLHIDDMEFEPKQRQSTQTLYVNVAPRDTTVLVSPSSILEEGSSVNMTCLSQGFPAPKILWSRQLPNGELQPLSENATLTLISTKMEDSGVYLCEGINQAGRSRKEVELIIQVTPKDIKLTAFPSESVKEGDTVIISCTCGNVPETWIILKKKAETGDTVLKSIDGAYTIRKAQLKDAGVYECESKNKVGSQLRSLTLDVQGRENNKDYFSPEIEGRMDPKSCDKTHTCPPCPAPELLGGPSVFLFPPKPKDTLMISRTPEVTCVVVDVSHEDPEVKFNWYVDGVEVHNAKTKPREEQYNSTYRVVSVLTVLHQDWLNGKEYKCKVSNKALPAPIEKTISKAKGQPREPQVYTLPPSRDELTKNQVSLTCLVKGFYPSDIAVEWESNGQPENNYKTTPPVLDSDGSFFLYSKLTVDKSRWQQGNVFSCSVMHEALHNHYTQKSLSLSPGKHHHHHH

The viability is a read-out of living cells in per cent, often relative to untreated cells. As for `CCCCCCCCCCCCCCCC(=O)N[C@H](C(=O)N[C@H](C(=O)N[C@H](C(=O)N[C@@H](C)C(=O)N[C@@H](C)C(=O)N[C@@H](C)C(=O)N[C@@H](CCC(=O)O)C(=O)N[C@@H](CCC(=O)O)C(=O)N[C@@H](CCC(=O)O)C(=O)NCC(=O)N[C@@H](CO)C(=O)NCC(=O)N[C@H](C(=O)N[C@@H](Cc1c[nH]cn1)C(=O)N1CCC[C@H]1C(=O)N[C@@H](CCCCN)C(=O)N[C@@H](CCC(N)=O)C(=O)N[C@@H](Cc1c[nH]cn1)C(N)=O)C(C)C)C(C)C)C(C)C)C(C)C` [VCAMb PA, C16-V3A3E3GSGVHPKQH (SEQ ID NO: 14)] (HELM PEPTIDE1{[CCCCCCCCCCCCCCCC(=O)[*:2]].V.V.V.A.A.A.E.E.E.G.S.G.V.H.P.K.Q.H.[am]}$$$$V2.0), on ICAM surface, the “non-specific interactions of coated lymphocytes with off-target protein” value is “minimal”. Moreover, the “difference in coating efficiency between VCAM-1 and ICAM-1 targeting PA” value in data set [1] was “little difference”. In addition, the viability at 1 min, 125 µM in [2] (125 μM PA) was 85.2 ± 5.3%. Besides, the viability at 1 min, 250 µM in [2] (250 μM PA) was 82.6 ± 7.45%. For the same compound, in data set [2] (500 μM PA), the viability at 1 min, 500 µM was 82.53 ± 0.61%. This compound also yielded a zeta potential in data set [3] of 21.4±3.703 mV. In data set [4], the “association with VCAM-1 protein in BLI” value is “clear association”. Besides, the coating efficiency is on record as at least 95% in data set [5] (PA in the range of 125-500 μM) and at least 94.5% in data set [5] (coated within 1 minute at room temperature). Also, in [5] (from coating efficiency and peak shifting), the “minimal concentration of stable coating” value stood at 125 µM.
As for `CCCCCCCCCCCCCCCC(=O)N[C@H](C(=O)N[C@H](C(=O)N[C@H](C(=O)N[C@@H](C)C(=O)N[C@@H](C)C(=O)N[C@@H](C)C(=O)N[C@@H](CCC(=O)O)C(=O)N[C@@H](CCC(=O)O)C(=O)N[C@@H](CCC(=O)O)C(N)=O)C(C)C)C(C)C)C(C)C` [backbone PA, C16-V3A3E3 (SEQ ID NO: 5)] (HELM PEPTIDE1{[CCCCCCCCCCCCCCCC(=O)[*:2]].V.V.V.A.A.A.E.E.E.[am]}$$$$V2.0), the “viability of coated cells” value in data set [6] is given as “high viability”.
Regarding “C16-V3A3E3GSGQHPHVK (SEQ ID NO: 17) (VVVAAAEEEGSGQHPHVK; HELM PEPTIDE1{[CCCCCCCCCCCCCCCC(=O)[*:2]].V.V.V.A.A.A.E.E.E.G.S.G.Q.H.P.H.V.K.[am]}$$$$V2.0; SMILES CCCCCCCCCCCCCCCC(=O)N[C@H](C(=O)N[C@H](C(=O)N[C@H](C(=O)N[C@@H](C)C(=O)N[C@@H](C)C(=O)N[C@@H](C)C(=O)N[C@@H](CCC(=O)O)C(=O)N[C@@H](CCC(=O)O)C(=O)N[C@@H](CCC(=O)O)C(=O)NCC(=O)N[C@@H](CO)C(=O)NCC(=O)N[C@@H](CCC(N)=O)C(=O)N[C@@H](Cc1c[nH]cn1)C(=O)N1CCC[C@H]1C(=O)N[C@@H](Cc1c[nH]cn1)C(=O)N[C@H](C(=O)N[C@@H](CCCCN)C(N)=O)C(C)C)C(C)C)C(C)C)C(C)C) [VCAMb-scr PA]”, the zeta potential in data set [3] is listed as 6.313±0.8632 mV. The “association with VCAM-1 protein in BLI” value in [4] is “negligible binding”. For the same compound, in [5] (physiological buffer), the “coating behavior on hTreg cells” value is given as “the majority of the cells were not coated by the fibers”.
“C16-V4A2E3 (SEQ ID NO: 12) (VVVVAAEEE; HELM PEPTIDE1{[CCCCCCCCCCCCCCCC(=O)[*:2]].V.V.V.V.A.A.E.E.E.[am]}$$$$V2.0; SMILES CCCCCCCCCCCCCCCC(=O)N[C@H](C(=O)N[C@H](C(=O)N[C@H](C(=O)N[C@H](C(=O)N[C@@H](C)C(=O)N[C@@H](C)C(=O)N[C@@H](CCC(=O)O)C(=O)N[C@@H](CCC(=O)O)C(=O)N[C@@H](CCC(=O)O)C(N)=O)C(C)C)C(C)C)C(C)C)C(C)C) [backbone PA candidate with V4A2 β-sheet region]”: in the data set with CCRF-CEM cells, the “coverage of the cell surface by nanofibers” value is recorded as “only could partially cover the cell surface”.
As usually defined, the Kd is the equilibrium constant for the complex coming apart. VHPKQHR [VHPKQHR (SEQ ID NO: 11)]: the dissociation constant Kd at VCAM-1 was 39.6 ± 1.78 nM.
